Several values for one entry are separate records, joined by “and”; a condition that tells them apart may be missing. Identical values can stand only once.
Key:
[1] = system: Bacillus subtilis ATCC6633; type: cell-based; conditions: microtiter broth dilution, 10^5 CFU/ml, 16‒18 h at 37 °C; representative of three independent experiments
Protocol: (§1) The MIC values of LfcinB17-33 derivatives against bacteria were determined by the microtiter broth dilution method. Briefly, 10 μl of serially diluted aliquots of peptides were added to each well of 96-well microtiter plates, followed by the addition of 90 μl exponential phase bacteria (10^5 CFU/ml) and incubated for 16‒18 h at 37 °C.

[2] = system: Pseudomonas aeruginosa CICC10419; type: cell-based; conditions: microtiter broth dilution, 10^5 CFU/ml, 16‒18 h at 37 °C; representative of three independent experiments
Protocol: as §1

[3] = system: S. pullorum CVCC1789; type: cell-based; conditions: microtiter broth dilution, 10^5 CFU/ml, 16‒18 h at 37 °C; representative of three independent experiments
Protocol: as §1

[4] = system: Salmonella typhimurium ATCC14028; type: cell-based; conditions: microtiter broth dilution, 10^5 CFU/ml, 16‒18 h at 37 °C; representative of three independent experiments
Protocol: as §1

[5] = system: Staphylococcus aureus ATCC43300; type: cell-based; conditions: microtiter broth dilution, 10^5 CFU/ml, 16‒18 h at 37 °C; representative of three independent experiments
Protocol: as §1

[6] = system: S. aureus ATCC25923; experiment: Cell surface hydrophobicity, hexadecane partitioning; type: cell-based, Staphylococcus aureus; conditions: peptide 1×, 2× or 4× MIC, 10 min 37 °C, increased from 5.27% (untreated) to this value, mean, n = 3
Protocol: (§2) The effects of AMPs on the cell surface hydrophobicity of S. aureus ATCC25923 and S. enteritidis CVCC3377 were measured using the hexadecane partitioning method. Cells were grown to stationary phase in Mueller-Hinton broth at 37 °C, harvested by centrifugation at 5000 rpm for 4 min, washed twice with sterile normal saline, and suspended in 0.1 M KNO3 (pH 6.2) to an OD600 nm of 0.4. […] Sterile normal saline was used as a negative control, and the optical density at 600 nm was measured as OD0. Subsequently, a 1.2-ml cell suspension was mixed with 0.2 ml of hexadecane by vortexing for 1 min, and then, the mixture was incubated for 15 min. The OD600 nm value of the aqueous phase was determined as OD1. The hydrophobicity percentages were calculated by the following equation: hydrophobicity (%) = (1 − OD1/OD0) × 100%. All experiments were repeated three times.

[7] = system: S. enteritidis CVCC3377; experiment: as above; type: cell-based, Salmonella enteritidis; conditions: peptide 1×, 2× or 4× MIC, 10 min 37 °C, increased from 9.43% (untreated) to this value, mean, n = 3
Protocol: as §2

[8] = system: S. aureus ATCC25923; experiment: Outer membrane permeabilization, NPN uptake; type: cell-based, Staphylococcus aureus; conditions: 1×, 2× or 4 × MIC; HEPES buffer pH 7.2
Protocol: The effects of Lfcin4 and Lfcin5 on the outer membrane of S. aureus ATCC25923 and S. enteritidis CVCC3377 were determined by measuring the uptake of NPN[44][45]. Mid-log phase cells were washed with sterile normal saline three times and suspended in 5 mM HEPES buffer (pH 7.2, containing 5 mM glucose) to an OD at 600 nm of 0.5. […] The relative fluorescence intensity was measured using an Infinite M200 PRO plate reader. The excitation and emission wavelengths were set at 328 and 438 nm, respectively. Treatment with PBS severed as a negative control, and treatment with ampicillin or colistin was used as a positive control.

[9] = system: genomic DNA from S. enteritidis CVCC3377; experiment: Gel retardation (EMSA) of genomic DNA; type: binding, Salmonella enteritidis; conditions: 0.7% agarose gel, 10 min 37 °C; ratios tested 0, 0.5, 1, 2.5, 5, 10 (w/w)
Protocol: Genomic DNA was extracted from S. aureus ATCC25923, E. coli O157 and S. enteritidis CVCC3377 using a TIANamp Bacteria DNA Kit (TIANGEN Biotech Co., Ltd., Beijing). The gel retardation experiment was performed by mixing the bacterial DNA with different concentrations of Lfcin4 or Lfcin5 in 20 μl binding buffer (10 mM Tris-HCl, pH 8.0, 5% glycerol, 1 mM dithiothreitol, 1 mM EDTA, 20 mM KCl, and 50 μg/ml bovine serum albumin)[41]. The ratios of peptide to DNA were 0, 0.5, 1, 2.5, 5.0, and 10.0 (w/w). The mixtures were incubated for 10 min at 37 °C and then subjected to electrophoresis on a 0.7% agarose gel.

[10] = system: S. aureus ATCC25923; experiment: Macromolecular synthesis, incorporation of radioactive precursors; type: cell-based, Staphylococcus aureus; conditions: 1 × MIC; 3H-glucosamine
Protocol: The effects of each peptide on the incorporation of L-[methyl-^3H] thymidine, [5-^3H] uridine, D-[6-^3H(N)] glucosamine hydrochloride, and L-[3,4,5-^3H] leucine into DNA, RNA, peptidoglycans, and proteins were investigated in S. aureus ATCC25923. […] Radioactive precursors of ^3H-thymidine, ^3H-uridine, ^3H-leucine, and ^3H-glucosamine (40 μCi/ml) were added to cultures to measure macromolecular synthesis and incubated for 20 min at 37 °C. Cold 25% trichloroacetic acid (TCA) was added to the mixture and placed on ice for 30 min. After centrifugation, pellets were washed twice with 25% TCA, dried and counted with scintillation fluid on a MicroBeta 1450 scintillation counter (Perkin Elmer)[46].

[11] = system: LPS from E. coli O111:B4; experiment: LPS-induced endotoxemia model, survival; type: in vivo, mouse (C57BL/6); conditions: followed 7 d, groups of eight mice
Protocol: Male C57BL/6 mice (8 weeks old, 22 ± 2 g) were intraperitoneally injected with 30 mg/kg of LPS (0.2 ml) from E. coli O111:B4 cells as previously described. Mice were intraperitoneally injected with Lfcin4 or Lfcin5 (10, 15 or 20 mg/kg of body weight in 0.2 ml) or colistin (15 mg/kg of body weight in 0.2 ml) at 0.5, 8 and 24 h after inoculation with LPS, respectively. Mice injected with LPS or saline only served as positive or mock-treated controls, respectively. Survival was recorded every 12 h and followed for up to 7 d.

[12] = system: LPS-induced lung injury; experiment: LPS-induced lung injury, histology; type: in vivo, mouse (C57BL/6); conditions: 15 mg/kg i.p. 30 min after LPS 10 mg/kg
Protocol: Thirty minutes after intraperitoneal injection of LPS (10 mg/kg of body weight in 0.2 ml), mice were intraperitoneally injected with Lfcin4, Lfcin5 or colistin (15 mg/kg of body weight in 0.2 ml). Mice were sacrificed at 8 h, 1 d, 4 d, and 7 d after LPS injection. The lungs were removed, washed with PBS and fixed in 4% paraformaldehyde at 4 °C for 24 h. After they were washed with PBS and dehydrated with a graded series of ethanol (75‒95%), the tissues were infiltrated with xylene and embedded in paraffin wax. Sections were cut, stained with hematoxylin and eosin and examined under a light microscope. Mice injected with LPS or only PBS served as positive or mock-treated controls, respectively.

Sequence: FKAWRWAWRMKKLAAPS [Lfcin4, 17-residue LfcinB17-31 derivative, Trp/Ala-containing]
- MIC [1]: 15 μM and 32 μg/ml
- MIC [2]: >58 μM and >128 μg/ml
- MIC [3]: >58 μM and >128 μg/ml
- MIC [4]: 58 μM and 128 μg/ml
- MIC [5]: 29 μM and 64 μg/ml
- cell surface hydrophobicity [6]: 18.87%
- cell surface hydrophobicity [7]: 16.45%
- time to permeabilization of the outer membrane (NPN fluorescence) [8]: ≤ 1 min
- peptide:DNA mass ratio at which migration of genomic DNA is impaired [9]: greater than 2.5 mass ratio (peptide:DNA)
- label incorporation into peptidoglycans (in words) [10]: increased label incorporation into peptidoglycans
- survival rate ([11]; 10 mg/kg i.p. at 0.5, 8 and 24 h after LPS 30 mg/kg i.p.): 75%
- survival rate ([11]; 15 mg/kg i.p. at 0.5, 8 and 24 h after LPS 30 mg/kg i.p.): 100%
- survival rate ([11]; 20 mg/kg i.p. at 0.5, 8 and 24 h after LPS 30 mg/kg i.p.): 100%
- lung histology (in words) ([12]; 8 h‒4 d): apparently less lung damage
- lung histology (in words) ([12]; 7 d): no obvious pathological differences
